Measurements reported in patent US5834461A, “Tricyclic benzazepine vasopressin antagonists” (American Cyanamid Company, priority 1997, dated 1998).

How the values were obtained:
[1] = target: T1, rat kidney medullary V2 receptors (Rattus norvegicus, UniProt Q00788); test: Binding Assay to Rat Kidney Medullary V2 Receptors; conditions: for IC50: rat kidney medullary V2; for inhibition at 10 µM: rat kidney, read-out: V2, % at concentration in brackets
T1 construct: Medullary tissues from rat kidneys are dissected out; from tissue; host or cells: rat kidney medulla membranes
T1 sequence (Q00788 whole entry): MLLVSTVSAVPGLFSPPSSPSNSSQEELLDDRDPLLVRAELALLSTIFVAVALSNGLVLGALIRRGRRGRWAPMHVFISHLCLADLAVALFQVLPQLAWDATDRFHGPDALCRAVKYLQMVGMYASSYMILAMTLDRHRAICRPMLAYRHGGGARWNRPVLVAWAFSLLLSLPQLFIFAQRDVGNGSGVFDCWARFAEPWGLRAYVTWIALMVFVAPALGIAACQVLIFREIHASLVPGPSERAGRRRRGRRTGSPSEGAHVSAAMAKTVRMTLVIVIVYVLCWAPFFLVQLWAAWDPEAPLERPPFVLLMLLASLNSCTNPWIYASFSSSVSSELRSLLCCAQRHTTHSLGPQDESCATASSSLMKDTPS
Outline: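 Competition binding: [3H]AVP at 0.8 nM, test compounds from 50% DMSO, and membranes from rat kidney medulla, left 120 min on the bench. Filtration then liquid scintillation counting measured bound ligand; 1.0 μM unlabeled ligand set non-specific binding.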

[2] = test system: vasopressin V2; test: Vasopressin V2 Antagonist Activity in Conscious Hydrated Rats (diuretic effect); format: in vivo, normal Sprague-Dawley rats; conditions: AVP 0.4 μg/kg i.p.
Outline: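 Conscious rats were dosed orally at 0.1–100 mg/kg, and AVP 0.4 μg/kg i.p. in peanut oil followed 1 h later. Urine volume, osmolality and Na/K/Cl were compared against AVP-treated controls, with non-AVP rats as water-loading controls.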

[3] = target: T2, oxytocin receptors (rat uterus membranes) (Rattus norvegicus, UniProt P70536); test: Oxytocin Receptor Binding; design: species or system female Sprague-Dawley rats
T2 construct: The resulting pellet containing the oxytocin receptors is resuspended; from tissue; host or cells: uterus membranes of DES-treated female Sprague-Dawley rats
T2 sequence (P70536 1-388): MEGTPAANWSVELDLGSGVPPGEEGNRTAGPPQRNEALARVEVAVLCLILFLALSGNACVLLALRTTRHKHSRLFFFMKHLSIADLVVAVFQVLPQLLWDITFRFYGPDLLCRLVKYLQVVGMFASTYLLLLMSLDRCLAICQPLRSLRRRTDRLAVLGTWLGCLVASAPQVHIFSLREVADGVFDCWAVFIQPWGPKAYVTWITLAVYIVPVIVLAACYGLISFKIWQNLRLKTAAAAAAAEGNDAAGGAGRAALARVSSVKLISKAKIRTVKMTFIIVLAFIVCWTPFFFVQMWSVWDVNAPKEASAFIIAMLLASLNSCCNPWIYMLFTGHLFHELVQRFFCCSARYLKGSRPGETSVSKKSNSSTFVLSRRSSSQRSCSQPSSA
Procedure: Female Sprague-Dawley rats weighing approximately 200-250 g are injected intramuscularly (i.m.) with 0.3 mg/kg of body weight of diethylstilbestrol (DES). The rats are sacrificed 18 hours later under pentobarbital anesthesia. The uteri are dissected out, cleaned of fat and connective tissues and rinsed in 50 ml of normal saline. The tissue pooled from six rats is homogenized in 50 ml of […] Tris.HCl, containing 0.5 mM dithiothreitol and 1.0 mM EDTA, adjusted to pH 7.4, using a polytron at setting 6 with three passes of 10 sec each. The homogenate is passed through two (2) layers of cheesecloth and the filtrate centrifuged at 1000×g for 10 min. The clear supernatant is removed and recentrifuged at 165,000×g for 30 min. The resulting pellet containing the oxytocin receptors is resuspended in 50.0 mM Tris.HCl containing 5.0 mM MgCl2 at pH 7.4, to give a protein concentration of 2.5 mg/ml of tissue suspension. This preparation is used in subsequent binding assays with [^3 H]Oxytocin.
Binding of 3,5-[^3 H]Oxytocin ([^3 H]OT) to its receptors is done in microtiter plates using [^3 H]OT, at various concentrations, in an assay buffer of 50.0 mM Tris.HCl, pH 7.4 and containing 5.0 mM MgCl2, and a mixture of protease inhibitors: BSA, 0.1 mg; aprotinin, 1.0 mg; 1,10-phenanthroline, 2.0 mg; […], 10.0 mg; and PMSF, 0.3 mg per 100 ml of buffer solution. Non-specific binding is determined in the presence of 1.0 uM unlabeled OT. The binding reaction is terminated after 60 min., at 22° C., by rapid filtration through glass fiber filters using a Brandel® cell harvester (Biomedical Research and Development Laboratories, Inc., Gaithersburg, Md.). Competition experiments are conducted at equilibrium using 1.0 nM [^3 H]OT and varying the concentration of the displacing agents. The concentrations of agent displacing 50% of [^3 H]OT at its sites (IC50) are calculated by a computer assisted LUNDON-2 program (LUNDON SOFTWARE INC., Ohio, USA).

| SMILES | IC50 [1] | inhibition at 10 µM [3] | IC50 ([3]; first part of Table V) | Osmolality ([2]; 10 mg/kg orally) | Urine Volume ([2]; 10 mg/kg orally) | further results |
| --- | --- | --- | --- | --- | --- | --- |
| COc1cc(C(=O)N2Cc3ccccc3Cc3ccccc32)ccc1NC(=O)c1cc(F)ccc1C [Example 261, N-[4-[(6,11-Dihydro-5H-dibenz[b,e]azepin-5-yl)-carbonyl]-2-methoxyphenyl]-2-methyl-5-fluorobenzamide] | – | 97% | 0.21 µM | 1337 mOsm/kg | 3.8 ml/4 hrs. | – |
| Cc1ccccc1C(=O)Nc1ccc(C(=O)N2Cc3ccccc3Cc3ccccc32)cc1 [Example 2, N-[4-[(6,11-Dihydro-5H-dibenz[b,e]azepin-5-yl)carbonyl]phenyl]-2-methylbenzamide] | 0.068 µM | 73% | 2.9 µM | 408 ± 34 mOsm/kg | 15.2 ± 2.4 ml/4 hrs. | Osmolality ([2]; 3 mg/kg orally): 1235 ± 162 mOsm/kg; Urine Volume ([2]; 3 mg/kg orally): 2.9 ± 0.5 ml/4 hrs.; Osmolality ([2]; 30 mg/kg orally): 401 ± 49 mOsm/kg; Urine Volume ([2]; 30 mg/kg orally): 18.9 ± 1.7 ml/4 hrs. |
| O=C(Nc1ccc(C(=O)N2Cc3ccccc3Cc3ccccc32)cc1)C1CC=CCC1 (centres unmarked) [Example 255, N-[4-[(6,11-Dihydro-5H-dibenz[b,e]azepin-5-yl)-carbonyl]phenyl]-3-cyclohexene-1-carboxamide] | 0.039 µM | 99% | 0.46 µM | – | – | Osmolality ([2]; 30 mg/kg orally): 1456 mOsm/kg; Urine Volume ([2]; 30 mg/kg orally): 2.3 ml/4 hrs. |
| Cc1ccccc1C(=O)Nc1ccc(C(=O)N2Cc3ccccc3Cc3ccccc32)c(Cl)c1 [Example 260, N-[4-[(6,11-Dihydro-5H-dibenz[b,e]azepin-5-yl)-carbonyl]-3-chlorophenyl]-2-methylbenzamide] | 0.065 µM | 44% | – | 498 ± 25 mOsm/kg | 13.8 ± 2.1 ml/4 hrs. | – |
| Cc1ccccc1C(=O)Nc1ccc(C(=O)N2Cc3ccccc3-c3ccccc32)cc1 [Example 5, 2-Methyl-N-[4-[(5(6H)-phenanthridinyl)carbonyl]phenyl]benzamide] | 0.029 µM | 90% | 2 µM | 1137 mOsm/kg | 2 ml/4 hrs. | – |
| CC(C)COc1ccc([N+](=O)[O-])cc1C(=O)Nc1ccc(C(=O)N2Cc3ccccc3Cc3ccccc32)cc1 [Example 453] | – | – | – | 776 mOsm/kg | 9.4 ml/4 hrs. | inhibition at 10 µM [1]: 26%; IC50 ([3]; second part of Table V): 3.3 µM |
| O=C(Nc1ccc(C(=O)N2Cc3ccccc3Cc3ccccc32)cc1)c1cc(Cl)cc(Cl)c1 [Example 251, N-(4-[(6,11-Dihydro-5H-dibenz[b,e]azepin-5-yl)-carbonyl]phenyl]-3,5-dichlorobenzamide] | 0.14 µM | 77% | – | 835 mOsm/kg | 7.5 ml/4 hrs. | – |
| Cc1cc(C(=O)N2Cc3ccccc3Cc3ccccc32)cc(C)c1NC(=O)c1ccc(Cl)cc1Cl [Example 259, N-[4-[(6,11-Dihydro-5H-dibenz[b,e]azepin-5-yl)-carbonyl]-2,6-dimethylphenyl]-2 4-dichlorobenzamide] | – | 7% | – | 1080 mOsm/kg | 6 ml/4 hrs. | inhibition at 10 µM [1]: 13% |
| Cc1ccccc1C(=O)Nc1c(C)cc(C(=O)N2Cc3ccccc3Cc3ccccc32)cc1C [Example 258, N-[4-[(6,11-Dihydro-5H-dibenz[b,e]azepin-5-yl)-carbonyl]-2,6-dimethylphenyl]-2-methylbenzamide] | – | 18% | – | – | – | inhibition at 10 µM [1]: 87% |
| COc1cc(C(=O)N2Cc3ccccc3Cc3ccccc32)ccc1NC(=O)c1ccccc1C [Example 257, N-[4-[(6,11-Dihydro-5H-dibenz[b,e]azepin-5-yl)-carbonyl]-2-methoxyphenyl]-2-methylbenzamide] | – | 97% | 0.189 µM | 434 mOsm/kg | 11.8 ml/4 hrs. | – |

Continued, in another order:

| IC50 [1] | inhibition at 10 µM [3] | IC50 ([3]; first part of Table V) | SMILES | Osmolality ([2]; 10 mg/kg orally) | Urine Volume ([2]; 10 mg/kg orally) | further results |
| --- | --- | --- | --- | --- | --- | --- |
| 0.082 µM | 89% | 1.1 µM | Cc1ccccc1C(=O)N(CN(C)C)c1ccc(C(=O)N2Cc3ccccc3Cc3ccccc32)cc1 [Example 267, N-[4-[(6,11-Dihydro-5H-dibenz[b,e]azepin-5-yl)-carbonyl]phenyl]-N-[(dimethylamino)methyl]-2-methylbenzamide] | 517 mOsm/kg | 7.5 ml/4 hrs. | – |
| 0.011 µM | 100% | – | Cc1ccc(F)cc1C(=O)Nc1ccc(C(=O)N2CCc3c[nH]nc3-c3ccccc32)cc1 [Example 584, N-[4-[(4.5-Dihydropyrazolo[4,3-d][1]benzazepin-6(2H)-yl)carbonyl]phenyl]-5-fluoro-2-methylbenzamide] | – | – | IC50 ([3]; second part of Table V): 0.17 µM |
| 0.053 µM | 96% | 0.81 µM | Cc1ccccc1C(=O)Nc1ccc(C(=O)N2CCc3cn(C)nc3-c3ccccc32)cc1 [Example 379, N-[4-[(4,5-Dihydro-2-methylpyrazolo[4,3-d][1]-benzazepin-6(2H)-yl)carbonyl]phenyl]-2-methylbenzamide] | – | – | Osmolality ([2]; 20 mg/kg orally): 483 mOsm/kg; Urine Volume ([2]; 20 mg/kg orally): 7 ml/4 hrs. |
| 1.1 µM | 19% | – | Cc1ncc2c(n1)-c1ccccc1N(C(=O)c1ccc(NC(=O)c3ccccc3C)cc1)CC2 [Example 416, N-[4-[(6,7-Dihydro-2-methyl-5H-pyrimido[5,4-d][1]-benzazepin-7-yl)carbonyl]phenyl]-2-methylbenzamide] | 1156 mOsm/kg | 4.3 ml/4 hrs. | – |
| – | 88% | – | Cc1nc2c(s1)CCN(C(=O)c1ccc(NC(=O)c3ccc(Cl)cc3Cl)cc1)c1ccccc1-2 [Example 455, N-[4-(4,5-Dihydro-2-methyl-6H-thiazolo[5,4-d][1]-benzazepin-6-yl)carbonyl1phenyl]-2,4-dichlorobenzamide] | 420 mOsm/kg | 13.5 ml/4 hrs. | IC50 ([3]; second part of Table V): 1.1 µM |
| 0.0113 µM | 95% | – | Cc1ccc(F)cc1C(=O)Nc1ccc(C(=O)N2CCc3c[nH]nc3-c3ccccc32)c(Cl)c1 [Example 581] | – | – | IC50 ([3]; second part of Table V): 0.475 µM |
| – | 86% | – | Cc1nc2c(s1)CCN(C(=O)c1ccc(NC(=O)c3cc(F)ccc3C)cc1)c1ccccc1-2 [Example 534] | 695 mOsm/kg | 10.6 ml/4 hrs. | IC50 ([3]; second part of Table V): 0.94 µM |
| – | 55% | 6.2 µM | Cc1c(F)cccc1C(=O)Nc1ccc(C(=O)N2Cc3ccccc3Cc3ccccc32)cc1Cl [Example 262, N-[4-[(6,11-Dihydro-5H-dibenz[b,e]azepin-5-yl)-carbonyl]-2-chlorophenyl]-2-methyl-3-fluorobenzamide] | 899 mOsm/kg | 6.8 ml/4 hrs. | – |
| – | 94% | 0.26 µM | COc1cc(C(=O)N2Cc3ccccc3Cc3ccccc32)ccc1NC(=O)c1ccc(Cl)cc1Cl [Example 263, N-[4-[(6,11-Dihydro-5H-dibenz[b,e]azepin-5-yl)-carbonyl]-2-methoxyphenyl]-2,4-dichlorobenzamide] | – | – | – |
| 0.19 µM | 39% | – | O=C(Nc1ccc(C(=O)N2Cc3ccccc3Sc3ccccc32)cc1)c1ccccc1Cl [Example 448, N-[4-[(Dibenz[b,f][1,4]thiazepin-10(11H)yl)-carbonyl]phenyl]-2-chlorobenzamide] | – | – | Osmolality ([2]; 30 mg/kg orally): 1084 mOsm/kg; Urine Volume ([2]; 30 mg/kg orally): 4.8 ml/4 hrs. |
